# Assay results: patent publication US20070249725A1, “Pharmaceutical formulations of sympathetic antagonist for the treatment of chronic muscle pain” (priority 2006, published 2007)
# Structures can show the parent of a compound that is named as a salt.
# How the values were obtained:
# active trigger points = test: Multicenter, randomized, placebo-controlled, double-blind dose response study of intramuscular PBZ: efficacy (Example II); type: in vivo, human
# Experimental: (§1) This was a multicenter, randomized, placebo-controlled, double-blind, dose response study of intramuscular phenoxybenzamine hydrochloride (PBZ) versus vehicle and saline placebos. Phenoxybenzamine formulation known in the art (propylene glycol and alcohol) and diluted in saline at the time of injection were evaluated. […] Patients with pain in the most commonly affected regions, the upper and lower back, were studied. Patients enrolled in this study were male or female with 4 months to 8 years of myofascial pain syndrome with identifiable active trigger points. Patients were required to have had EMG documented triggers points and meet the criteria of <10 uV in the adjacent muscle site and have a minimum of a 2:1 ratio of trigger point amplitude: adjacent amplitude. Attempts were made to obtain maximum amplitude in the trigger point.
# (§2) The primary objectives of this study were to evaluate the safety, tolerance, and efficacy of 4 doses (0.1, 0.3, 1.0, or 2.4 mg) of phenoxybenzamine per intramuscular injection site. The vehicle placebo group received vehicle in a concentration equivalent to the active doses. A second placebo was saline. All injections were of 0.3 ml in volume. Up to 10 trigger points were injected at each treatment session. There were up to 2 treatment sessions up to 10 days apart. The primary efficacy evaluation was made at week 12 of treatment. The Visual Analogue Pain Scale (VAS) was used to assess pain in the affected region before and after treatment. Secondary efficacy assessments included the McGill Pain Questionnaire (MPQ), the Spinal Function Sort (SFS) and the SF-36 Quality of Life questionnaire.
# [1] = Multicenter placebo-controlled dose response study of intramuscular PBZ: safety and tolerance (Example II); type: in vivo, human
# Experimental: as §1, §2
# Thirty-two of the 79 patients (41%) in the saline placebo group, 33 of 83 patients (40%) in the vehicle placebo group, 35 of the 86 patients (41%) in the 1 mg group, and 37 of the 81 patients (46%) in the 2.4 mg group experienced 1 or more treatment-emergent adverse experiences. For all treatment groups combined, the most common adverse experiences observed were dizziness: 8%; pain 5%; nausea: 3%, and sweating: 3%. […] The most frequent adverse experiences were dizziness (8%) and pain (5%), followed by headache, sweating, and nausea (3% each).
# [2] = 1 mg PBZ per injection site, 86 patients
smiles,measurement,setting,value
"CC(COc1ccccc1)N(CCCl)Cc1ccccc1 (stereo not drawn) [Phenoxybenzamine Hydrochloride, phenoxybenzamine hydrochloride]",efficacy of formulations in this study,active trigger points; 1.0 mg and 2.4 mg in propylene glycol and alcohol composition,ineffective
same,difference in percent change from baseline between placebo and active drug,"active trigger points; 1.0 mg group, not statistically significant",9.9%
same,efficacy compared with placebo,active trigger points; 2.4 mg group,equivalent to placebo
same,"Dizziness, % of patients",[1]; 0.1 mg PBZ per injection site,5%
same,"Dizziness, number of patients",[1]; 0.1 mg PBZ per injection site,1
same,"Ecchymosis, % of patients",[1]; 0.1 mg PBZ per injection site,0 (0%)
same,"Ecchymosis, number of patients",[1]; 0.1 mg PBZ per injection site,0 (0%)
same,"Flu syndrome, % of patients",[1]; 0.1 mg PBZ per injection site,0 (0%)
same,"Flu syndrome, number of patients",[1]; 0.1 mg PBZ per injection site,0 (0%)
same,"Headache, % of patients",[1]; 0.1 mg PBZ per injection site,0 (0%)
same,"Headache, number of patients",[1]; 0.1 mg PBZ per injection site,0 (0%)
same,"Hypotension, % of patients",[1]; 0.1 mg PBZ per injection site,0 (0%)
same,"Hypotension, number of patients",[1]; 0.1 mg PBZ per injection site,0 (0%)
same,"Infection, % of patients",[1]; 0.1 mg PBZ per injection site,0 (0%)
same,"Infection, number of patients",[1]; 0.1 mg PBZ per injection site,0 (0%)
same,"Injection site edema, % of patients",[1]; 0.1 mg PBZ per injection site,0 (0%)
same,"Injection site edema, number of patients",[1]; 0.1 mg PBZ per injection site,0 (0%)
same,"Nausea, % of patients",[1]; 0.1 mg PBZ per injection site,0 (0%)
same,"Nausea, number of patients",[1]; 0.1 mg PBZ per injection site,0 (0%)
same,"Pain, % of patients",[1]; 0.1 mg PBZ per injection site,5%
same,"Pain, number of patients",[1]; 0.1 mg PBZ per injection site,1
same,"Sweating, % of patients",[1]; 0.1 mg PBZ per injection site,0 (0%)
same,"Sweating, number of patients",[1]; 0.1 mg PBZ per injection site,0 (0%)
same,"Syncope, % of patients",[1]; 0.1 mg PBZ per injection site,0 (0%)
same,"Syncope, number of patients",[1]; 0.1 mg PBZ per injection site,0 (0%)
same,"TOTAL NUMBER OF PATIENTS reporting treatment-emergent adverse experiences, % of patients",[1]; 0.1 mg PBZ per injection site,(33%)
same,"TOTAL NUMBER OF PATIENTS reporting treatment-emergent adverse experiences, number",[1]; 0.1 mg PBZ per injection site,7
same,"Dizziness, % of patients",[1]; 0.3 mg PBZ per injection site,0 (0%)
same,"Dizziness, number of patients",[1]; 0.3 mg PBZ per injection site,0 (0%)
same,"Ecchymosis, % of patients",[1]; 0.3 mg PBZ per injection site,0 (0%)
same,"Ecchymosis, number of patients",[1]; 0.3 mg PBZ per injection site,0 (0%)
same,"Flu syndrome, % of patients",[1]; 0.3 mg PBZ per injection site,5%
same,"Flu syndrome, number of patients",[1]; 0.3 mg PBZ per injection site,1
same,"Headache, % of patients",[1]; 0.3 mg PBZ per injection site,5%
same,"Headache, number of patients",[1]; 0.3 mg PBZ per injection site,1
same,"Hypotension, % of patients",[1]; 0.3 mg PBZ per injection site,0 (0%)
same,"Hypotension, number of patients",[1]; 0.3 mg PBZ per injection site,0 (0%)
same,"Infection, % of patients",[1]; 0.3 mg PBZ per injection site,5%
same,"Infection, number of patients",[1]; 0.3 mg PBZ per injection site,1
same,"Injection site edema, % of patients",[1]; 0.3 mg PBZ per injection site,0 (0%)
same,"Injection site edema, number of patients",[1]; 0.3 mg PBZ per injection site,0 (0%)
same,"Nausea, % of patients",[1]; 0.3 mg PBZ per injection site,5%
same,"Nausea, number of patients",[1]; 0.3 mg PBZ per injection site,1
same,"Pain, % of patients",[1]; 0.3 mg PBZ per injection site,0 (0%)
same,"Pain, number of patients",[1]; 0.3 mg PBZ per injection site,0 (0%)
same,"Sweating, % of patients",[1]; 0.3 mg PBZ per injection site,0 (0%)
same,"Sweating, number of patients",[1]; 0.3 mg PBZ per injection site,0 (0%)
same,"Syncope, % of patients",[1]; 0.3 mg PBZ per injection site,0 (0%)
same,"Syncope, number of patients",[1]; 0.3 mg PBZ per injection site,0 (0%)
same,"TOTAL NUMBER OF PATIENTS reporting treatment-emergent adverse experiences, % of patients",[1]; 0.3 mg PBZ per injection site,(23%)
same,"TOTAL NUMBER OF PATIENTS reporting treatment-emergent adverse experiences, number",[1]; 0.3 mg PBZ per injection site,5
same,"Dizziness, % of patients",[1]; 1 mg PBZ per injection site,13%
same,"Dizziness, number of patients",[1]; 1 mg PBZ per injection site,11
same,"Ecchymosis, % of patients",[1]; 1 mg PBZ per injection site,1 (1%)
same,"Ecchymosis, number of patients",[1]; 1 mg PBZ per injection site,1 (1%)
same,"Flu syndrome, % of patients",[1]; 1 mg PBZ per injection site,3 (3%)
same,"Flu syndrome, number of patients",[1]; 1 mg PBZ per injection site,3 (3%)
same,"Headache, % of patients",[1]; 1 mg PBZ per injection site,6%
same,"Headache, number of patients",[1]; 1 mg PBZ per injection site,5
same,"Hypotension, % of patients",[1]; 1 mg PBZ per injection site,2 (2%)
same,"Hypotension, number of patients",[1]; 1 mg PBZ per injection site,2 (2%)
same,"Infection, % of patients",[1]; 1 mg PBZ per injection site,2 (2%)
same,"Infection, number of patients",[1]; 1 mg PBZ per injection site,2 (2%)
same,"Injection site edema, % of patients",[1]; 1 mg PBZ per injection site,2 (2%)
same,"Injection site edema, number of patients",[1]; 1 mg PBZ per injection site,2 (2%)
same,"Nausea, % of patients",[1]; 1 mg PBZ per injection site,1 (1%)
same,"Nausea, number of patients",[1]; 1 mg PBZ per injection site,1 (1%)
same,"Pain, % of patients",[1]; 1 mg PBZ per injection site,8%
same,"Pain, number of patients",[1]; 1 mg PBZ per injection site,7
same,"Sweating, % of patients",[1]; 1 mg PBZ per injection site,3 (3%)
same,"Sweating, number of patients",[1]; 1 mg PBZ per injection site,3 (3%)
same,"Syncope, % of patients",[1]; 1 mg PBZ per injection site,2 (2%)
same,"Syncope, number of patients",[1]; 1 mg PBZ per injection site,2 (2%)
same,"TOTAL NUMBER OF PATIENTS reporting treatment-emergent adverse experiences, % of patients",[1]; [2],41%
same,"TOTAL NUMBER OF PATIENTS reporting treatment-emergent adverse experiences, number",[1]; [2],35
same,"Dizziness, % of patients",[1]; 2.4 mg PBZ per injection site,(10%)
same,"Dizziness, number of patients",[1]; 2.4 mg PBZ per injection site,8
same,"Ecchymosis, % of patients",[1]; 2.4 mg PBZ per injection site,1 (1%)
same,"Ecchymosis, number of patients",[1]; 2.4 mg PBZ per injection site,1 (1%)
same,"Flu syndrome, % of patients",[1]; 2.4 mg PBZ per injection site,1 (1%)
same,"Flu syndrome, number of patients",[1]; 2.4 mg PBZ per injection site,1 (1%)
same,"Headache, % of patients",[1]; 2.4 mg PBZ per injection site,0 (0%)
same,"Headache, number of patients",[1]; 2.4 mg PBZ per injection site,0 (0%)
same,"Hypotension, % of patients",[1]; 2.4 mg PBZ per injection site,1 (1%)
same,"Hypotension, number of patients",[1]; 2.4 mg PBZ per injection site,1 (1%)
same,"Infection, % of patients",[1]; 2.4 mg PBZ per injection site,1 (1%)
same,"Infection, number of patients",[1]; 2.4 mg PBZ per injection site,1 (1%)
same,"Injection site edema, % of patients",[1]; 2.4 mg PBZ per injection site,9%
same,"Injection site edema, number of patients",[1]; 2.4 mg PBZ per injection site,7
same,"Nausea, % of patients",[1]; 2.4 mg PBZ per injection site,5%
same,"Nausea, number of patients",[1]; 2.4 mg PBZ per injection site,4
same,"Pain, % of patients",[1]; 2.4 mg PBZ per injection site,6%
same,"Pain, number of patients",[1]; 2.4 mg PBZ per injection site,5
same,"Sweating, % of patients",[1]; 2.4 mg PBZ per injection site,6%
same,"Sweating, number of patients",[1]; 2.4 mg PBZ per injection site,5
same,"Syncope, % of patients",[1]; 2.4 mg PBZ per injection site,1 (1%)
same,"Syncope, number of patients",[1]; 2.4 mg PBZ per injection site,1 (1%)
same,"TOTAL NUMBER OF PATIENTS reporting treatment-emergent adverse experiences, number","[1]; 2.4 mg PBZ per injection site, 81 patients",37
same,injection site soreness compared with placebo groups,"[1]; high dose groups, first and second treatments",Significantly more patients
same,"injection site pain, mean duration",[1]; in vivo,less than 10 days
same,"injection site pain, severity",[1]; in vivo,mild to moderate
same,side effects at the injection site,[1]; low dosages,caused some adverse side effected at the injection site
